{"source": "PubChem BioAssay AID493092", "about": "(Sanford-Burnham Center for Chemical Genomics, 2011)", "system": "AML12 mouse hepatocytes, BODIPY lipid droplet imaging", "experiment": "lipid droplet accumulation inhibition in liver cells – imaging, AML12 mouse hepatocytes, BODIPY staining, SAR follow-up (AID 493092)", "conditions": "cells fed 100 µM oleate overnight", "note": "Activity calls are given as the source filed them.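 The calls were made as follows: active = averaged IC50 for reducing per-cell lipid droplet stain intensity under a set limit; inactive = the rest.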", "data": [{"smiles": "COc1cc(NC(=O)c2cccs2)c(OC)cc1NC(=O)CCC(=O)Nc1c(C)cccc1C", "values": [{"measurement": "IC50", "result": 2200, "unit": "nM"}]}, {"smiles": "O=C(Cc1cccc2ccccc12)NCC(=O)N1CCc2ccccc2C1", "values": [{"measurement": "IC50", "result": "> 32000 nM (inactive)"}]}, {"smiles": "CC(OC(=O)c1cccc([N+](=O)[O-])c1)C(=O)Nc1nc(-c2ccccc2)cs1", "note": "(stereo not drawn)", "values": [{"measurement": "IC50", "result": "> 32000 nM (inactive)"}]}, {"smiles": "CCc1ccccc1NC(=O)CCC(=O)Nc1cc(OC)c(NC(=O)c2cccs2)cc1OC", "values": [{"measurement": "IC50", "result": 538, "unit": "nM"}]}, {"smiles": "Cc1cc(N2CCOCC2)n2nc(C)c(-c3ccccc3Cl)c2n1", "values": [{"measurement": "IC50", "result": 410, "unit": "nM"}]}, {"smiles": "CCOc1ccccc1NC(=O)CCC(=O)Nc1ccccc1OCC", "values": [{"measurement": "IC50", "result": 1540, "unit": "nM"}]}, {"smiles": "CCOc1ccccc1C(=O)NCC(=O)NCCCc1ccccc1", "values": [{"measurement": "IC50", "result": "> 32000 nM (inactive)"}]}, {"smiles": "Cc1ccc(-n2nc3c(=O)n(CC(=O)NC(C)CCc4ccccc4)nc(C)c3c2C)cc1", "note": "(stereo not drawn)", "values": [{"measurement": "IC50", "result": 413, "unit": "nM"}]}]}
